Assay [1] concerns Sprague Dawley rats injected with LPS (Salmonella Enteritidis). Put plainly: Survival of rats after intravenous LPS (septic shock test). It counts as in vivo, rat. As to conditions: male Sprague Dawley rats, LPS i.v. at dose giving about 30% survival, compound 3 μg/kg i.v. immediately after, monitored 7 days; control (LPS only) 23. Here is the method: Male Sprague Dawley rats (175-200 g, Charles river, Calco, Italy) were intravenously injected with a dose of LPS (Salmonella Enteritidis, Sigma) in 0.2 ml of physiological solution, previously determined on the same batch of animals, as giving about 30% survival. Thereafter they were randomized into groups of at least 18 animals and each immediately inoculated intravenously with 3 μg/kg of some of the compounds representative of the invention. One group of animals was treated with LPS only and considered as the control. The animals were monitored for the following 7 days to determine their survival.

Assay [2] concerns Wistar rats with left coronary artery ligation. Put plainly: Cardioprotective activity following ischemia induced by occlusion of the left coronary artery in the anesthetized rat. As to conditions: anesthetized male Wistar rats, 0.1 μg/kg/min i.v., left coronary artery ligated for 30 minutes. The format is in vivo. From the text:
The cardiovascular activity of the compounds of the invention was investigated by means of a test aiming at evaluating the cardioprotective activity following ischemia induced by the occlusion of the left coronary artery in the anestethized rat, performed substantially as described by C. Clark et al. Journ. Exp. Methods, 3, 357, 1980. It is known that the occlusion of the coronary artery causes several events altering the ECG-pattern including, among others, hypoxia, arrhythmias, with eventual death of the laboratory animals.
In this test, male Wistar rats, (350-450 g, Charles River) were divided into groups of at least 18 animals, anestethized with nembutal (65 mg/kg i.p.) and each connected to an electrocardiograph for continuously monitoring the ECG. The animals, maintained under artificial ventilation, underwent thoracotomy and, after incision of the pericardium, a suture thread was passed around the left coronary artery, near to its origins. The animals were then administered intravenously with 0.1 μg/kg/min of the compounds of the invention dissolved in saline. One group of animals (control group) were administered intravenously with saline (5 ml/kg/hr). After 15 minutes recovery, and provided that electocardiographic alteration was not recorded, the left coronary artery was ligated and the ligature was maintained for 30 minutes. During this period the animals were monitored and ventricular tachycardia (VT), ventricular fibrillations (VF) and mortality were7 assessed.

Residues, ends and D or L forms follow the SMILES beside them.

This is an account of results in patent US6342481B1, “Oligopeptides derived from C-reactive protein fragments” (priority 1993, dated 2002).

The compound “H-Gly-(Et)Lys-Pro-Arg-OH.2AcOH [Example 15]” yielded a Survival percentage in assay [1] of 33%.

In the case of “H-Gly-(Bzl)Lys-Pro-Arg-OH.2AcOH [Example 10]”, the Survival percentage in assay [1] is recorded as 43%. `CCN[C@@H](CCCCN)C(=O)N1CCC[C@H]1C(=O)O` [Example 12, H-(Et)Lys-Pro-OH.AcOH]: in assay [2] (control 29), the Mortality % came to 12%. Further, the “Incidence % V.F. (ventricular fibrillations)” value in assay [2] (control 86) came to 75%. The “Incidence % V.T. (ventricular tachycardia)” value in assay [2] (control 100) amounted to 10%. For the same compound, the Survival percentage in assay [1] amounted to 44%. Take `CC(C)CN(C(=O)CN)[C@@H](CCCCN)C(=O)N1CCC[C@H]1C(=O)O` [Example 9, H-Gly-(isoBut)Lys-Pro-OH.AcOH]: the Survival percentage in assay [1] amounted to 39%. For `N=C(N)NCCC[C@H](NC(=O)[C@@H]1CCCN1C(=O)[C@@H]1CCCN1C(=O)CN)C(=O)O` [Example 11, H-Gly-Pro-Pro-Arg-OH.AcOH] (H-GPPR-OH), in assay [1], the Survival percentage is reported as 57%. On the same count and under the same terms, the value for “H-Gly-(Et)Lys-Pro-Lys-OH.AcOH [Example 14]” was 48%.
